In one series the test system is thrombin generation. The series can be described thus: Thrombin generation in platelet poor plasma (Thrombinoscope, Innovin or Actin trigger). The note with it: COL-3 final concentration 10.72, 21.44 and 536 μl, Innovin 5 pM or Actin 1:20 trigger, FIGS. 1A and 1B. The format is biochemical, human. The method, then: (§1) COL-3 was dissolved in DMSO (dimethyl sulfoxide, Sigma, St. Louis, Mo.). Blood was drawn from 5 consented healthy volunteers into 3.2% citrate tubes.
For thrombin generation experiments 80 μl of platelet poor plasma containing either saline, DMSO or COL-3 at final concentration of […] and thrombin generation trigger (Innovin 5 pM, or Actin 1:20 dilution, Dade Behring, Marburg, Germany) were added to 96 well microtiter plate (Microfluor-2, Thermolabsystems, Franklin Mass.) followed by 20 μl of calcium-substrate (Z-GGR-AMC, Bachem, Switzerland) buffer. The reaction was monitored by measuring increase in fluorescence at 390 nm excitation and 460 nm emission wavelengths and the acquired data was processed for lag time and peak thrombin generation parameters using Thrombinoscope software (Thrombinoscope BV, Maastricht, the Netherlands). The data were imported into excel file and the % decrease in thrombin generation due to COL-3 was calculated. Data were analyzed using repeated ANOVA p<0.05 was considered significant.

A further series has as its system plasma PT. The series can be described thus: Prothrombin time (PT) in plasma. The format is biochemical, human. To be noted: COL-3 10.72, 21.44 and 536 μM, FIG. 2. The method, then:
as §1
(§2) Maximum amplitude (MA), angle, and R-value were recorded. For prothrombin time (PT) and activated partial thromboplastin time (aPTT) blood samples were centrifuged for 15 min at 3000× g to obtain plasma and COL-3 was added to a final concentration of 10.72, 21.44 and 536 μM. Testing was done using Start 4instrument (Diagnostic Stago, Parsippainy, N.J.) along with appropriate standards and controls.

A further series has as its system plasma aPTT. Briefly: Activated partial thromboplastin time (aPTT) in plasma. The format is biochemical, human. The note with it: COL-3 10.72, 21.44 and 536 μM, FIG. 2. The method, then: as §1, §2
A further series concerns platelets. Briefly: Platelet aggregation (light transmittance aggregometer, ADP and collagen activators). It counts as cell-based, human. To be noted: 200,000 platelets/μl; ADP and collagen (20 μM) as activators. The method, then: as §1
For platelet aggregation studies platelet rich and platelet poor plasma was separated by centrifugation. All platelet studies were performed in a total volume of 500 μl with 200,000 platelets/μl. Platelet aggregation was quantitated by measuring changes in light transmittance in dual channel aggregometer (Chronolog Corp. Havertown, Pa.) using ADP (adenosine di-phosphate) and collagen (final concentration 20 μM) as activators.

A further series deals with whole blood. The series can be described thus: TEG (Thromboelastograph) of whole blood activated with tissue factor. It counts as cell-based, human. To be noted: COL-3 10.72 or 21.44 μM, TF 4 pM. The method, then:
as §1
For TEG (Thromboelastograph, Haemoscope Corp, Skokie Ill.) whole blood samples (0.34 ml) were added to cups along with 10 μl of saline (control), DMSO, or COL-3 (final concentration of 10.72 or 21.44 μM). After addition of calcium chloride (20 μl of 0.2 M), samples were activated with TF (tissue factor) (4 pM) and TEGs (thrombelastogram) were run according to manufacturers directions.
as §2

Series [1] is described as follows: Plasma concentration in humans after daily dose. The format is in vivo. The note with it: dose of about 10 to about 20 mg/day.

For `NC(=O)C1=C(O)C[C@@H]2C[C@@H]3Cc4cccc(O)c4C(=O)C3=C(O)[C@]2(O)C1=O` [COL-3, 6-demethyl-6-deoxy-4-de(dimethylamino)tetracycline], in the series with thrombin generation, the thrombin generation entry was “dose dependent reduction”. In addition, the PT values entry in the series with plasma PT is on record as “increased only at the highest concentration”. Moreover, in the series on plasma aPTT, the aPTT values result is “increased only at the highest concentration”. The platelet aggregation entry with platelets is listed as “no effect”. In the series with whole blood, the “TEG parameters (maximum amplitude (MA), angle, R-value)” value is reported as “no effect”. In addition, the “plasma concentrations in humans” value in series [1] is “about 1.0 μg/ml”.
